Experimental data taken from patent US7541457B2, “Amphiphilic trisulfonated porphyrazines for photodynamic applications in medicine” (Universite de Sherbrooke, priority 2003, dated 2009).

Tests used:
[1] = tested on: plasma extravasation in STZ-diabetic rat retinal vessels; assay: PDT of plasma extravasation (Evans Blue) in STZ-diabetic rat retina; assay type: in vivo, Wistar rats; conditions: for Inhibition of plasma extravasation: 0.5 μmole/kg
Experimental: (§1) The long established Evans Blue technique was used to measure plasma extravasation. Under anesthesia with a 10 mg/kg mixture of Ketamine and Xylazine, 250 g male wistar rats were injected with 45 mg/kg Evans Blue through a canula placed in the jugular vein. Ten minutes later, the experimental procedure was started. At the end of experiments, the animals were sacrificed and their eyes were enucleated. Both eyes combined were placed into 300 μl of formamide and incubated at 70° C. for 18 hours. Following incubation the supernatant absorbance at 620 nm was read with a spectrophotometer. A standard curve was used to determine the concentration of Evans Blue, which was expressed in μg/ml.
After an overnight fast, diabetes was induced with a single 65 mg/kg intraperitoneal injection of streptozotocin (STZ) in 10 mM citrate buffer, pH 4.5. Animals that served as non diabetic controls received an equivalent amount of citrate buffer alone. One week later, just prior to experimentation, blood glucose levels were measured to determine diabetic status. Only rats with blood glucose higher than 20 mM were deemed STZ-diabetic.
Conscious rats were injected with the photosensitizing drug through the tail vein six hours prior to irradiation with red light onto the retina. […] Subsequently the eyes were enucleated and tested for Evan's Blue levels.

[2] = tested on: EMT-6 mammary tumours; assay: PDT of EMT-6 mammary tumors in BALB/c mice; assay type: in vivo
Experimental: All experiments were performed on male BALB/c mice (18-22g) (Charles River Breeding Laboratories, Montreal, Quebec, Canada) bearing two EMT-6 mammary tumours. The experiments were conducted following a protocol approved by the Canadian Council on Animal Care and the in-house ethics committee. Animals were allowed free access to water and food throughout the experiments. Before tumour implantation, hair on the hind legs and the backs of the mice was removed by shaving and chemical depilating (Nair, Whitehall, Mississauga, Canada). The two tumors were implanted on the backs of the animals by intradermal injection of 2-3×10^5 EMT-6 cells suspended in 0.05 ml Waymouth's growth medium.
For PDT tumor response studies, mice were used 7-10 d after tumor cell inoculation (mean external tumor size 4.5-6.0 mm diameter and approximately 2.5 mm thickness). The mice were given an intravenous administration of […] of porphyrazine dye in PBS (0.2 mL/20 g) through the tail vein. […] Mice were examined daily for 20 days following PDT in order to assess tumor response (necrosis) and recurrence.
At the highest dye dose over 50% of the animals responded with complete tumor regression as observed 3 weeks after treatment.

[3] = tested on: EMT-6 murine mammary tumor cells; assay: Phototoxicity (cellular photoinactivation, MTT) against EMT-6 tumor cells in vitro; assay type: cell-based; conditions: for LD90 (light dose for 90% cell kill): dye 1 μM, red light 660-700 nm
[4] = tested on: Vascular Endothelial Growth Factor evoked plasma extravasation; assay: PDT of VEGF-165 evoked plasma extravasation (Evans Blue) in rat retina; assay type: in vivo, Wistar rats
Experimental: as §1
Rats anesthetized with a mixture of Ketamine and Zylazine (10 mg/kg) were injected with 2 μl of VEGF-165 prepared in saline, directly into the vitreous, using a Hamilton micro syringe. A period of 10 min was allotted for the plasma extravasation response to occur. After the response to VEGF-165 developed, the eyes were enucleated and subjected to spectrophotometric analysis for Evan's Blue.
[…] […] Subsequently the eyes were enucleated and tested for Evan's Blue levels.

[5] = tested on: EMT-6 mammary tumours; assay: PDT of EMT-6 mammary tumors in BALB/c mice; assay type: in vivo; conditions: for Necrosis (flat and necrotic tissue within 2 days post-PDT): light 24 h later, 670 nm, 400 J/cm^2

Row | Substance | Inhibition of plasma extravasation ([1]; light 6 h after drug, 45 J/cm2, total fluence 3 J) | Plasma extravasation after PDT ([1]; STZ-diabetic rats, interval drug to light extended from 1 hour up to 6 hours) | Relative potency as inhibitor of plasma extravasation ([1]; among the five molecules tested, light 6 h after drug) | Inhibition of plasma extravasation ([1]; diabetic rats, red light 680 nm, 25 mW/cm^2, 20 J/cm^2) | Tumor response (flattening and necrosis) within 48 h after PDT ([2]; all dye doses used, 0.5-1 μmole/kg) | Mortality ([2]; any of the dye and light doses used) | Mortality ([2]; dye dose 1 μmole/kg) [%] | Necrosis (flat and necrotic tissue within 2 days post-PDT) ([2]; dye dose 1 μmole/kg i.v., light 24 h later, 670 nm, 400 J/cm^2) [%] | LD90 (light dose for 90% cell kill) ([3]; 6 h incubation) [J · cm^−2] | LD90 (light dose for 90% cell kill) ([3]; 24 h incubation) [J · cm^−2] | Relative phototoxicity within the alkylyl series ([3]; compounds 45-49, 6 h and 24 h incubation) | Inhibition of plasma extravasation ([4]; VEGF-165 injected rats, 0.5 μmole/kg, red light 680 nm, 25 mW/cm^2, 20 J/cm^2) | Plasma extravasation after PDT ([4]; VEGF-165 treated STZ-diabetic rats, 5 hour interval between photosensitizer administration and light) | Cure (absence of a palpable tumor 3 weeks post-PDT) ([5]; dye dose 0.5 μmole/kg) [%] | Mortality ([5]; dye dose 0.5 μmole/kg) [%] | Necrosis (flat and necrotic tissue within 2 days post-PDT) ([5]; dye dose 0.5 μmole/kg i.v.) [%] | Cure (absence of a palpable tumor 3 weeks post-PDT) ([5]; dye dose 0.75 μmole/kg) [%] | Mortality ([5]; dye dose 0.75 μmole/kg) [%] | Necrosis (flat and necrotic tissue within 2 days post-PDT) ([5]; dye dose 0.75 μmole/kg i.v.) [%]
1 | Zinc tri-(4-sulfobenzo)-5-mono-[(1-hexynyl)naphtho]-porphyrazine [Compound 46] | completely inhibited plasma extravasation | reduced plasma extravasation to the level of control non-diabetic rats | most potent inhibitor of plasma extravasation | completely inhibited plasma extravasation to control levels | All treated tumors responded | No mortality occurred | 0 | 100 | 4.1 | 1.2 | highest phototoxicity | completely inhibited plasma extravasation to control levels | reach control levels | 0 | 0 | 100 | 20 | 0 | 100
2 | zinc trisulfophthalocyanine [ZnPcS3, reference compound] |  |  |  |  |  |  |  |  | 5.9 | 2.2 |  |  |  |  |  |  |  |  | 
